Assay in all cases: DTP human tumour cell line panel, 48 h
Assay [1] concerns HCT-15 colon.
For assay [2], the system named is M14 melanoma.
Assay [3] deals with NCI-H460 lung.
Assay [4] has as its system NCI-H522 lung.
The test system of assay [5] is OVCAR-4 ovarian.
The subject of assay [6] is SF-295 CNS.
Assay [7] relates to TK-10 renal.
The subject of assay [8] is UACC-257 melanoma.
Assay [9] has as its system SR leukemia.

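Five concentrations, 48 hours, 96-well plates. GI50 is the concentration that inhibits growth by half. TGI: concentration producing complete growth inhibition.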 Where only a bound is given, the exact number is not on record here.

A word on the TGI: it is the concentration at which net growth stops. Lower therefore signals greater sensitivity of the cells. As for `N#C/C(=C\c1cc(OCc2ccccc2)c(OCc2ccccc2)cn1)C(N)=O`, the TGI in assay [1] is greater than 100 µM; in assay [2], greater than 100 µM; in assay [3], greater than 100 µM; in assay [4] it was 41.2 µM; in assay [5] it was greater than 100 µM; in assay [6], greater than 100 µM. The concentration for total growth inhibition (TGI) in assay [7] and in assay [8] was greater than 100 µM each time.
On to `C[C@]12Cc3cn[nH]c3C(=O)C1CC[C@@H]1C2CC[C@@]2(C)C1CC[C@@H]2O` (some centres undefined), for which the TGI in assay [1], in assay [2], in assay [3], in [4], in assay [5] and in assay [6] was greater than 100 µM in each case. Besides, the TGI in assay [7] and in assay [8] was greater than 100 µM throughout.
For the compound `O=[N+]([O-])c1ccc(Cl)c2c([N+](=O)[O-])cccc12`, the concentration for total growth inhibition (TGI) in [1], in assay [5], in assay [6], in assay [9] and in assay [7] was greater than 10 µM throughout.
With `Nc1ncc(Cc2ccc3c(c2)OCO3)c(N)n1`, the TGI in assay [1], in [2], in [3], in assay [5], in assay [6] and in assay [9] was greater than 100 µM in each case. The concentration for total growth inhibition (TGI) in assay [7] and in [8] was greater than 100 µM in each case.
In general, GI50 refers to the concentration at which growth is held to half of that of the control. On to `N#CC(C(=O)C(=O)Nc1c(Cl)cccc1Cl)c1ccccc1` (centres undefined), for which the GI50 in assay [1], in assay [2], in assay [3], in assay [5], in assay [6] and in assay [7] was greater than 100 µM each time. Further, the TGI in assay [1], in [2], in [3], in assay [5] and in assay [7] was greater than 100 µM throughout.
In the case of `COc1cc([C@@H]2c3cc4c(cc3[C@@H](NC(=O)c3ccc(C#N)cc3)C3COC(=O)[C@@H]32)OCO4)cc(OC)c1O` (some centres undefined), the total growth inhibition concentration (TGI) in [1] is 15.1 µM; in assay [2], 12.4 µM; in assay [3], 1.43 µM; in assay [4] it was 2.39 µM; in assay [5], greater than 100 µM; in assay [6], 11.8 µM. Moreover, the TGI in assay [7] worked out at 4.86 µM; in [8], 20.1 µM.
Take `OCc1cc2c(cn1)[nH]c1ccc(NCc3ccccc3)cc12`: the concentration for total growth inhibition (TGI) in assay [1] was greater than 100 µM; in [2], 37.5 µM; in [3] it was 80.2 µM; in assay [4], 52 µM; in assay [5], greater than 100 µM; in assay [6], 59.9 µM. Also, the TGI was determined as 85.8 µM in assay [7] and 59.9 µM in assay [8].
Consider `O=C1NC(=O)c2c1n(Cc1ccccc1)c(=O)n2Cc1ccccc1`, for which the concentration for total growth inhibition (TGI) in [1], in assay [2], in assay [3], in [4], in assay [5] and in assay [6] was greater than 100 µM throughout. Also, the concentration for total growth inhibition (TGI) in [7] and in [8] was greater than 100 µM in each case.
For `O=c1cc(O)cc2n1CCC2`, the total growth inhibition concentration (TGI) in [1], in [2], in assay [3], in assay [4], in assay [6] and in assay [7] was greater than 100 µM throughout. Further, in [8], the TGI was greater than 100 µM.
For `CC1=N/C(=C\c2ccc(/C=C3/N=C(C)OC3=O)cc2)C(=O)O1`, the TGI in assay [1], in assay [2], in assay [4], in [5], in assay [7] and in assay [8] was greater than 100 µM throughout.
Take `O=C(NC1C(=O)NNC1c1cccc([N+](=O)[O-])c1)c1ccccc1` (centres undefined): the TGI in [2], in assay [3], in assay [5], in assay [6], in [7] and in assay [8] was greater than 100 µM throughout.
Regarding `COc1cc(Nc2cnc3ccc(C(F)(F)F)cc3n2)cc(OC)c1OC`, the TGI is greater than 100 µM in assay [1]; greater than 100 µM in assay [3]; 91.2 µM in assay [6]; greater than 100 µM in assay [9]; greater than 100 µM in assay [7]; greater than 100 µM in [8].
Take `O=c1/c(=C/c2ccccc2[N+](=O)[O-])sc2nnc(-c3cccnc3)n12`: the total growth inhibition concentration (TGI) in [1], in [2], in assay [3], in [5], in assay [6] and in assay [9] was greater than 100 µM each time. For the same compound, the TGI in assay [7] and in assay [8] was greater than 100 µM throughout.
As to `CCc1ccccc1NC(=O)c1cccc([N+](=O)[O-])c1O`, the TGI in [1] was greater than 100 µM; in [2], greater than 100 µM; in assay [3], 71 µM; in assay [4], 62.6 µM; in [5], greater than 100 µM; in assay [6], 32.2 µM. The compound also yielded a total growth inhibition concentration (TGI) in assay [8] of 77 µM.

(Values after PubChem BioAssay (NCI).)
